From ChEMBL document CHEMBL1697723, “A predictive ligand-based Bayesian model for human drug-induced liver injury” (Drug Metab Dispos, 2010)
Structures can show the parent of a compound that is named as a salt.

Tested on: Hepatotoxicity
Assay: Human drug-induced liver injury (DILI) modelling dataset from Ekins et al

Compound	Hepatotoxicity	Hepatotoxicity (Liver)
CCOc1nc2cccc(C(=O)O)c2n1Cc1ccc(-c2ccccc2-c2nnn[nH]2)cc1	DILI negative (test set)	–
CCCc1nc2c(C)cc(-c3nc4ccccc4n3C)cc2n1Cc1ccc(-c2ccccc2C(=O)O)cc1	DILI negative (training set)	–
CCCCC(=O)N(Cc1ccc(-c2ccccc2-c2nnn[nH]2)cc1)[C@H](C(=O)O)C(C)C	DILI negative (test set)	–
CC(C)(C)NCC(O)c1cc(O)cc(O)c1.O=S(=O)(O)O (centres undefined)	DILI positive (test set)	–
COc1cccc(OC)c1C(=O)N[C@@H]1C(=O)N2[C@@H]1SC(C)(C)[C@@H]2C(=O)[O-].[Na+]	DILI positive (training set)	–
CN[C@@H]1[C@H](O)[C@H](NC)[C@H]2O[C@@]3(O)C(=O)C[C@@H](C)O[C@H]3O[C@@H]2[C@H]1O.Cl	DILI positive (test set)	–
CCO.C[C@H]1c2cccc(O)c2C(=O)C2=C(O)[C@]3(O)C(=O)C(C(N)=O)=C(O)[C@@H](N(C)C)[C@@H]3[C@@H](O)[C@@H]21.Cl.O	DILI positive (training set)	–
Cl.NCCNCCNCCN	–	DILI positive (test set)
CCN(CC)CCNC(=O)c1cc(Cl)c(N)cc1OC.Cl	DILI positive (training set)	–
CNS(=O)(=O)Cc1ccc2[nH]cc(CCN(C)C)c2c1	DILI negative (training set)	–
CN(C)CCN(Cc1cccs1)c1ccccn1	DILI positive (test set)	–
CCCCCOC(=O)c1ccccc1C(=O)OCCCCC	DILI positive (test set)	–
CC1=C(CC(=O)O)c2cc(F)ccc2/C1=C\c1ccc([S+](C)[O-])cc1 (centres undefined)	DILI positive (training set)	–
CCOC(=O)[C@H](CCc1ccccc1)N[C@@H](C)C(=O)N1Cc2ccccc2C[C@H]1C(=O)O	DILI positive (training set)	–
S=C=Nc1ccc2ccccc2c1	DILI negative (test set)	–
CO/N=C(/C(=O)N[C@@H]1C(=O)N2C(C(=O)[O-])=C(CSc3nc(=O)c(O)nn3C)CS[C@H]12)c1csc(N)n1.[Na+]	DILI positive (test set)	–
O=C1NC(=O)C(O)(O)C(=O)N1	DILI negative (training set)	–
Oc1ccccc1Br	DILI positive (test set)	–
O=C(O)COc1ccc(C(=O)c2cccs2)c(Cl)c1Cl	DILI positive (test set)	–
CCN(CC)Cc1cc(Nc2ccnc3cc(Cl)ccc23)ccc1O.Cl.Cl.Cl	–	DILI positive (test set)

Compound	Hepatotoxicity	Hepatotoxicity (Liver)
N#CC(C#N)=NNc1ccc(OC(F)(F)F)cc1	–	DILI positive (training set)
O=C1NCN(c2ccccc2)C12CCN(CCCC(c1ccc(F)cc1)c1ccc(F)cc1)CC2	DILI positive (test set)	–
C[n+]1ccc(-c2cc[n+](C)cc2)cc1	DILI positive (test set)	–
Nc1ccc(Cc2ccc(N)cc2)cc1	DILI positive (test set)	–
C=C1CC[C@@]2(O)[C@H]3Cc4ccc(O)c5c4[C@@]2(CCN3CC2CC2)[C@H]1O5	DILI negative (training set)	–
ClCCCl [1,2-DICHLOROETHANE]	DILI positive (test set)	–
Clc1ccc(Cl)cc1 [1,4-DICHLOROBENZENE]	DILI positive (test set)	–
FCCCCCF [1,5-DIFLUOROPENTANE]	DILI positive (test set)	–
S=C=Nc1cccc2ccccc12 [1-NAPHTHYLISOTHIOCYANATE]	DILI positive (test set)	–
O=[N+]([O-])c1ccc(O)c([N+](=O)[O-])c1 [2,4-DINITROPHENOL]	DILI positive (test set)	–
Nc1ccc(O)cc1 [4-AMINOPHENOL]	DILI negative (test set)	–
Nc1nc(NC2CC2)c2ncn([C@H]3C=C[C@@H](CO)C3)c2n1 [ABACAVIR]	DILI positive (test set)	–
CC(=O)CC(c1ccc([N+](=O)[O-])cc1)c1c(O)c2ccccc2oc1=O (centres undefined) [ACENOCOUMAROL]	DILI positive (test set)	–
CC(=O)Nc1ccc(O)cc1 [ACETAMINOPHEN]	DILI positive (training set)	–
CC(=O)Nc1nnc(S(N)(=O)=O)s1 [ACETAZOLAMIDE]	DILI positive (training set)	–
CC(=O)c1ccc(S(=O)(=O)NC(=O)NC2CCCCC2)cc1 [ACETOHEXAMIDE]	DILI positive (training set)	–
CC(=O)OCC[N+](C)(C)C.[Cl-] [ACETYLCHOLINE CHLORIDE]	–	DILI negative (training set)
CC(=O)N[C@@H](CS)C(=O)O [ACETYLCYSTEINE]	DILI negative (test set)	–
COc1cc(C)c(/C=C/C(C)=C/C=C/C(C)=C/C(=O)O)c(C)c1C [ACITRETIN]	DILI positive (training set)	–
N[C@H](C(=O)O)[C@@H]1CC(Cl)=NO1 [ACIVICIN]	DILI negative (training set)	–

Compound	Hepatotoxicity	Hepatotoxicity (Liver)
CC[C@@]1(O)C[C@H](O[C@H]2C[C@H](N(C)C)[C@H](O[C@H]3C[C@H](O)[C@H](O[C@H]4CCC(=O)[C@H](C)O4)[C@H](C)O3)[C@H](C)O2)c2c(cc3c(c2O)C(=O)c2c(O)cccc2C3=O)[C@H]1C(=O)OC.Cl [ACLARUBICIN HYDROCHLORIDE]	DILI negative (test set)	–
Nc1ncnc2c1ncn2[C@@H]1O[C@H](CO)[C@@H](O)[C@H]1O [ADENOSINE]	DILI negative (training set)	–
COc1cc2c(c3oc(=O)c4c(c13)CCC4=O)[C@@H]1C=CO[C@@H]1O2 [AFLATOXIN]	DILI positive (test set)	–
CCCSc1ccc2nc(NC(=O)OC)[nH]c2c1 [ALBENDAZOLE]	DILI positive (training set)	–
Oc1ncnc2[nH]ncc12 [ALLOPURINOL]	DILI positive (training set)	–
C=CCO [ALLYL ALCOHOL]	DILI positive (test set)	–
C=CCOC=O [ALLYL FORMATE]	DILI positive (test set)	–
CCCN(CCC)C(=O)Cc1c(-c2ccc(Cl)cc2)nc2ccc(Cl)cn12 [ALPIDEM]	DILI positive (test set)	–
Cl.NC12CC3CC(CC(C3)C1)C2 [AMANTADINE HYDROCHLORIDE]	DILI negative (training set)	–
Cl.N=C(N)NC(=O)c1nc(Cl)c(N)nc1N.O.O [AMILORIDE HYDROCHLORIDE]	DILI negative (training set)	–
Cl.O=C(O)CCCCCCNC1c2ccccc2CCc2ccccc21 [AMINEPTINE HYDROCHLORIDE]	DILI positive (test set)	–
Nc1ccc(C(=O)[O-])cc1.[K+] [AMINOBENZOATE POTASSIUM]	DILI negative (training set)	–
NCCCCCC(=O)O [AMINOCAPROIC ACID]	DILI negative (test set)	–
CCC1(c2ccc(N)cc2)CCC(=O)NC1=O (centres undefined) [AMINOGLUTETHIMIDE]	DILI negative (training set)	–
Nc1ccc(C(=O)O)c(O)c1 [AMINOSALICYLIC ACID]	DILI positive (training set)	–
CCCCc1oc2ccccc2c1C(=O)c1cc(I)c(OCCN(CC)CC)c(I)c1 [AMIODARONE]	–	DILI positive (training set)
CN(C)CCC=C1c2ccccc2CCc2ccccc21.Cl [AMITRIPTYLINE HYDROCHLORIDE]	DILI negative (training set)	–
Cl.N [AMMONIUM CHLORIDE]	DILI negative (training set)	–
Clc1ccc2c(c1)C(N1CCNCC1)=Nc1ccccc1O2 [AMOXAPINE]	DILI negative (training set)	–
